Experimental data: ChEMBL document CHEMBL1137360, “Structure-activity relationships of a novel series of urotensin II analogues: identification of a urotensin II antagonist” (J Med Chem, 2006)
Active and inactive are the calls of the source. No cut-off for these calls is given here. Positions of bridges follow the written chain, without caps; N, C: chain ends. Non-standard residues stand in square brackets, D forms with d. Residues, ends and D or L forms follow the SMILES beside them. Tyr(3-NO2) = N[C@@H](Cc1ccc(O)c([N+](=O)[O-])c1)C(=O)O; Phe(4-COOH) = N[C@@H](Cc1ccc(C(=O)O)cc1)C(=O)O; Phe(4-tBu) = CC(C)(C)c1ccc(C[C@H](N)C(=O)O)cc1; Tyr(3-I) = N[C@@H](Cc1ccc(O)c(I)c1)C(=O)O; Oic = O=C(O)[C@@H]1C[C@@H]2CCCC[C@@H]2N1; Phe(4-NH2) = Nc1ccc(C[C@H](N)C(=O)O)cc1; Bta = N[C@@H](Cc1csc2ccccc12)C(=O)O; 2Thi = N[C@@H](Cc1cccs1)C(=O)O; Cha = N[C@@H](CC1CCCCC1)C(=O)O; NMeD = CN[C@@H](CC(=O)O)C(=O)O; pGlu = O=C1CC[C@@H](C(=O)O)N1; Pen = CC(C)(S)[C@H](N)C(=O)O; Aib = CC(C)(N)C(=O)O

Experiments:
[1] = species: Rattus norvegicus; assay: Agonist activity in rat aortic ring contraction assay; assay type: functional; conditions: Aorta
[2] = molecular target: T1, Urotensin-2 receptor (Homo sapiens, UniProt Q9UKP6); assay: Displacement of [125I]human urotensin-2 from human GPR14 transfected in CHO cells; assay type: cell-based; conditions: for Log Ki: cho
T1 sequence (Q9UKP6 whole entry): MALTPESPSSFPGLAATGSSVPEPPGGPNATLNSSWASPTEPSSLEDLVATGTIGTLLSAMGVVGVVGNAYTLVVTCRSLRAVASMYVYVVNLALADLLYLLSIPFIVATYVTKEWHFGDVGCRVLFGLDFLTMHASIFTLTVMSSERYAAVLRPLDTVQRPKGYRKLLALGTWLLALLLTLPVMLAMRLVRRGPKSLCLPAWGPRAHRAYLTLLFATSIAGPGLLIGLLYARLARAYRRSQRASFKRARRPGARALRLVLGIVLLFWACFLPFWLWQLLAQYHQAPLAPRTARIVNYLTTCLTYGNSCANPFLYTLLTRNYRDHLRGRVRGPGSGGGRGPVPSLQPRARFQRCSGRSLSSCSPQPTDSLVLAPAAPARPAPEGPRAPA

[3] = species: Rattus norvegicus; assay: Agonist activity in rat aortic ring contraction assay relative to 1 uM phenylephrine; assay type: functional
[4] = molecular target: T2, Urotensin-2 receptor (Rattus norvegicus) (UniProt P49684); assay: Antagonist activity against 1 uM human urotensin-2-induced contraction of rat aortic ring; assay type: functional, tissue-based; conditions: Aorta
T2 sequence (whole entry): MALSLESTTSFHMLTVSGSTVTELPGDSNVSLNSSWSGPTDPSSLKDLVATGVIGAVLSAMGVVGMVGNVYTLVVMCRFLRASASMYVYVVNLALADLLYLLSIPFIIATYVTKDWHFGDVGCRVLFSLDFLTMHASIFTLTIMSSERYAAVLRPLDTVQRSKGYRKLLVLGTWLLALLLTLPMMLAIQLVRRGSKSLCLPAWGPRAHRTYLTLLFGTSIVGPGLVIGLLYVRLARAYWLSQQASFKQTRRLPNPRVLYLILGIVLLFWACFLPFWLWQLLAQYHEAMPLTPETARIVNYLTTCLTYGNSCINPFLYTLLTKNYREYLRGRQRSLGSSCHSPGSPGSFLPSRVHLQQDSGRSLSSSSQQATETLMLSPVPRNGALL

[5] = species: Rattus norvegicus; assay: Agonist activity in rat aortic ring contraction assay relative to 0.1 uM phenylephrine; assay type: functional, Aorta

Compound	EC50 [1] [nM]	Ki [2] [nM]	Activity [4]	Log Ki [2]	Activity ([3]; Aorta)	Activity [3] [%]	Activity [5] [%]
CC(C)[C@H](NC(=O)[C@@H]1CSSC[C@H](NC(=O)[C@@H](N)CC(=O)O)C(=O)N[C@H](CC2CCCCC2)C(=O)N[C@@H](Cc2c[nH]c3ccccc23)C(=O)N[C@@H](CCCCN)C(=O)N[C@@H](Cc2ccc(O)cc2)C(=O)N1)C(=O)O	> 10000	> 10000	inactive	–	inactive	–	–
CC(C)[C@H](NC(=O)[C@@H]1CSSC[C@H](NC(=O)[C@H](C)N)C(=O)N[C@@H](CC2CCCCC2)C(=O)N[C@@H](Cc2c[nH]c3ccccc23)C(=O)N[C@@H](CCCCN)C(=O)N[C@@H](Cc2ccc(O)cc2)C(=O)N1)C(=O)O (H-AC[Cha]WKYCV-OH; disulfide 2-7)	933	263	inactive	–	–	36.9	–
CC(C)[C@H](NC(=O)[C@@H]1CSSC[C@H](NC(=O)[C@@H](N)CC(=O)O)C(=O)N[C@@H](Cc2ccccc2)C(=O)N[C@@H](Cc2c[nH]c3ccccc23)C(=O)N[C@@H](CCCCN)C(=O)N[C@@H](Cc2ccc(C(=O)O)cc2)C(=O)N1)C(=O)O (H-DCFWK[Phe(4-COOH)]CV-OH; disulfide 2-7)	1700	74.1	inactive	–	–	79.3	–
CC(C)C[C@@H]1NC(=O)[C@@H](NC(=O)[C@@H](N)CC(=O)O)CSSC[C@@H](C(=O)N[C@H](C(=O)O)C(C)C)NC(=O)[C@H](Cc2ccc(O)cc2)NC(=O)[C@H](CCCCN)NC(=O)[C@H](Cc2c[nH]c3ccccc23)NC1=O (H-DCLWKYCV-OH; disulfide 2-7)	> 10000	132	inactive	–	–	–	38.7
CC(C)[C@H](NC(=O)[C@@H]1CSSC[C@H](NC(=O)[C@@H](N)CC(=O)O)C(=O)N[C@@H](Cc2cccs2)C(=O)N[C@@H](Cc2c[nH]c3ccccc23)C(=O)N[C@@H](CCCCN)C(=O)N[C@@H](Cc2ccc(O)cc2)C(=O)N1)C(=O)O (H-DC[2Thi]WKYCV-OH; disulfide 2-7) [listing 2 of 2 here]	–	–	–	–	–	94	–
CC(C)[C@H](NC(=O)[C@@H]1CSSC[C@H](NC(=O)[C@@H](N)CC(=O)O)C(=O)N[C@@H](Cc2csc3ccccc23)C(=O)N[C@@H](Cc2c[nH]c3ccccc23)C(=O)N[C@@H](CCCCN)C(=O)N[C@@H](Cc2ccc(O)cc2)C(=O)N1)C(=O)O (H-DC[Bta]WKYCV-OH; disulfide 2-7) [listing 2 of 2 here]	–	–	–	–	–	73.8	–
CC(C)[C@H](NC(=O)[C@@H]1CSSC[C@H](NC(=O)[C@@H](N)CC(=O)O)C(=O)N2[C@@H](C[C@@H]3CCCC[C@@H]32)C(=O)N[C@@H](Cc2c[nH]c3ccccc23)C(=O)N[C@@H](CCCCN)C(=O)N[C@@H](Cc2ccc(O)cc2)C(=O)N1)C(=O)O (H-DC[Oic]WKYCV-OH; disulfide 2-7)	> 10000	–	–	< -5	–	–	–
CC(C)[C@H](NC(=O)[C@@H]1CSSC[C@H](NC(=O)[C@@H](N)CC(=O)O)C(=O)N[C@@H](Cc2ccc(C(C)(C)C)cc2)C(=O)N[C@@H](Cc2c[nH]c3ccccc23)C(=O)N[C@@H](CCCCN)C(=O)N[C@@H](Cc2ccc(O)cc2)C(=O)N1)C(=O)O (H-DC[Phe(4-tBu)]WKYCV-OH; disulfide 2-7) [listing 2 of 2 here]	–	–	–	–	–	76.7	–
CC(C)[C@H](NC(=O)[C@@H]1CSSC(C)(C)[C@H](NC(=O)[C@@H](N)CC(=O)O)C(=O)N[C@@H](CC2CCCCC2)C(=O)N[C@@H](Cc2c[nH]c3ccccc23)C(=O)N[C@@H](CCCCN)C(=O)N[C@@H](Cc2ccc(O)cc2)C(=O)N1)C(=O)O (H-D[Pen][Cha]WKYCV-OH; disulfide 2-7)	1910	155	inactive	–	–	14.8	–

Further molecules by falling EC50 [1], results first:

EC50 [1] [nM]	Ki [2] [nM]	Activity [4]	Log Ki [2]	Compound	Activity ([3]; Aorta)	Activity [3] [%]	Activity [5] [%]
427	10	inactive	–	CC(C)[C@H](NC(=O)[C@@H]1CSSC[C@H](NC(=O)[C@@H](N)CC(=O)O)C(=O)N[C@@H](Cc2ccccc2)C(=O)N[C@@H](Cc2c[nH]c3ccccc23)C(=O)N[C@@H](CCCCN)C(=O)N[C@@H](Cc2ccc(N)cc2)C(=O)N1)C(=O)O (H-DCFWK[Phe(4-NH2)]CV-OH; disulfide 2-7)	–	97.7	–
355	19.5	inactive	–	CC(C)[C@H](NC(=O)[C@@H]1CSSC[C@H](NC(=O)[C@@H](N)CC(=O)O)C(=O)N[C@@H](CC2CCCCC2)C(=O)N[C@@H](Cc2c[nH]c3ccccc23)C(=O)N[C@@H](CCCCN)C(=O)N[C@@H](Cc2ccc(O)c(I)c2)C(=O)N1)C(=O)O (H-DC[Cha]WK[Tyr(3-I)]CV-OH; disulfide 2-7)	–	82.1	–
288	–	–	-8.95	CC(C)[C@H](NC(=O)[C@@H]1CSSC[C@H](NC(=O)[C@@H](N)CC(=O)O)C(=O)N[C@@H](Cc2csc3ccccc23)C(=O)N[C@@H](Cc2c[nH]c3ccccc23)C(=O)N[C@@H](CCCCN)C(=O)N[C@@H](Cc2ccc(O)cc2)C(=O)N1)C(=O)O (H-DC[Bta]WKYCV-OH; disulfide 2-7) [listing 1 of 2 here]	–	–	–
23.4	9.12	inactive	–	CC(C)[C@H](NC(=O)[C@@H]1CSSC[C@H](NC(=O)[C@@H](N)CC(=O)O)C(=O)N[C@@H](Cc2ccccc2)C(=O)N[C@@H](Cc2c[nH]c3ccccc23)C(=O)N[C@@H](CCCCN)C(=O)N[C@@H](Cc2ccc(C(C)(C)C)cc2)C(=O)N1)C(=O)O (H-DCFWK[Phe(4-tBu)]CV-OH; disulfide 2-7)	–	88.5	–
9.77	2.4	inactive	–	CC(C)[C@H](NC(=O)[C@@H]1CSSC[C@H](NC(=O)[C@@H](N)CC(=O)O)C(=O)N[C@@H](Cc2ccccc2)C(=O)N[C@@H](Cc2c[nH]c3ccccc23)C(=O)N[C@@H](CCCCN)C(=O)N[C@@H](Cc2ccc(O)c([N+](=O)[O-])c2)C(=O)N1)C(=O)O (H-DCFWK[Tyr(3-NO2)]CV-OH; disulfide 2-7)	–	95	–
8.91	–	–	-8.54	CC(C)[C@H](NC(=O)[C@@H]1CSSC[C@H](NC(=O)[C@@H](N)CC(=O)O)C(=O)N[C@@H](Cc2cccs2)C(=O)N[C@@H](Cc2c[nH]c3ccccc23)C(=O)N[C@@H](CCCCN)C(=O)N[C@@H](Cc2ccc(O)cc2)C(=O)N1)C(=O)O (H-DC[2Thi]WKYCV-OH; disulfide 2-7) [listing 1 of 2 here]	–	–	–
6.03	1.62	inactive	–	CN[C@@H](CC(=O)O)C(=O)N[C@H]1CSSC[C@@H](C(=O)N[C@H](C(=O)O)C(C)C)NC(=O)[C@H](Cc2ccc(O)cc2)NC(=O)[C@H](CCCCN)NC(=O)[C@H](Cc2c[nH]c3ccccc23)NC(=O)[C@H](Cc2ccccc2)NC1=O (H-[NMeD]CFWKYCV-OH; disulfide 2-7)	–	93.1	–
5.89	0.912	inactive	–	CC(C)[C@H](NC(=O)[C@@H]1CSSC[C@H](NC(=O)[C@@H]2CCC(=O)N2)C(=O)N[C@@H](Cc2ccccc2)C(=O)N[C@@H](Cc2c[nH]c3ccccc23)C(=O)N[C@@H](CCCCN)C(=O)N[C@@H](Cc2ccc(O)cc2)C(=O)N1)C(=O)O ([pGlu]CFWKYCV-OH; disulfide 2-7)	–	98.6	–
5.62	2.24	inactive	–	CC(C)[C@H](NC(=O)[C@@H]1CSSC[C@H](NC(=O)C(C)(C)N)C(=O)N[C@@H](Cc2ccccc2)C(=O)N[C@@H](Cc2c[nH]c3ccccc23)C(=O)N[C@@H](CCCCN)C(=O)N[C@@H](Cc2ccc(O)cc2)C(=O)N1)C(=O)O (H-[Aib]CFWKYCV-OH; disulfide 2-7)	–	83.9	–
5.01	1.23	inactive	–	CC(C)[C@H](NC(=O)[C@@H]1CSSC[C@H](NC(=O)[C@@H](N)CC(=O)O)C(=O)N[C@@H](Cc2ccccc2)C(=O)N[C@@H](Cc2c[nH]c3ccccc23)C(=O)N[C@@H](CCCCN)C(=O)N[C@@H](Cc2ccc(O)cc2)C(=O)N1)C(=O)O (H-DCFWKYCV-OH; disulfide 2-7)	–	102.1	–
4.79	2.95	inactive	–	CC(C)[C@H](NC(=O)[C@@H]1CSSC[C@H](NC(=O)[C@@H](N)CCC(=O)O)C(=O)N[C@@H](Cc2ccccc2)C(=O)N[C@@H](Cc2c[nH]c3ccccc23)C(=O)N[C@@H](CCCCN)C(=O)N[C@@H](Cc2ccc(O)cc2)C(=O)N1)C(=O)O (H-ECFWKYCV-OH; disulfide 2-7)	–	82.1	–
4.07	–	–	-7.63	CC(C)[C@H](NC(=O)[C@@H]1CSSC[C@H](NC(=O)[C@@H](N)CC(=O)O)C(=O)N[C@@H](Cc2ccc(C(C)(C)C)cc2)C(=O)N[C@@H](Cc2c[nH]c3ccccc23)C(=O)N[C@@H](CCCCN)C(=O)N[C@@H](Cc2ccc(O)cc2)C(=O)N1)C(=O)O (H-DC[Phe(4-tBu)]WKYCV-OH; disulfide 2-7) [listing 1 of 2 here]	–	–	–
